{
  "source": "patent US8759367B2",
  "about": "“Compounds and methods for the prevention and treatment of cancer” (The Wistar Institute, priority 2010, dated 2014)",
  "system": "GLI1-driven reporter activity mediated by exogenous SHH (Shh-light2 cells)",
  "experiment": "GLI-dependent firefly luciferase reporter assay in Shh-light2 cells treated with SHH",
  "format": "cell-based",
  "details": "AKI0532 5, 2.5 or 1 μM in DMSO, alone (−SHH) or with SHH (+SHH), 2 days, FIG. 1",
  "description": "Shh-light2 cells (3T3 clone stably transfected with a GLI-dependent firefly luciferase plasmid) were treated with carrier DMSO as control or AKI0532 (5, 2.5, or 1 μM in DMSO) either alone (−SHH) or in combination with SHH (+SHH) for 2 days.\nFor example, AKI0532 analogs shown in Table 1 can be subjected to a battery of tests that are commonly used to assess effects on SHH activity and to determine specificity. As exemplified herein for AKI0532, one screen involves examining the activation of the SHH pathway using the well-established cell line, SHH-Light2 cells. This cell line is a 3T3 clone that stably expresses a GLI-dependant firefly luciferase (Taipale, et al. (2000) Nature 406:1005-1009). […] Concentrations of each compound, ranging from 20 μM to 1 μM, can be tested. SHH-Light2 cells are seeded 24 hours prior to treatment. They were then cultured for an additional 48 hours in standard serum-containing media prior to analysis. GLI-binding site luciferase activities are measured using a commercially available luciferase reporter assay system. Treatment of SHH-Light2 cells with recombinant SHH (200 ng) results in strong induction of reporter activity. IC50 values are determined and are compared to that of AKI0532 in the same assay in order to assess which of the AKI0532 analogs have the highest levels of SHH inhibitory activity.",
  "data": [
    {"smiles": "C[C@]12CCC(c3ccc(O)cc3)=CC1=CC[C@@]21Cc2ncccc2O1", "note": "[AKI0532]", "values": [
      {"measurement": "GLI1-driven reporter activity mediated by exogenous SHH", "value": "inhibits GLI1-driven reporter activity mediated by exogenous SHH"}
    ]}
  ]
}
